Earlier results, collected in patent US20050266409A1, “Compositions and methods for diagnosing, preventing, and treating cancers” (priority 2003, published 2005).
pIC50: −log10 of the molar value.

Experiments:
tumor cells = conditions: read-out: 50% growth inhibition of tumor cells
[1] = system: lymphoid, myeloid, colon, and prostate cancer cells; conditions: prostate cancer xenografts in nude mice

- pIC50 (tumor cells): 7.22
Compound: CN1CC[C@H](c2c(O)cc(O)c3c(=O)cc(-c4ccccc4Cl)oc23)[C@H](O)C1 [Flavopiridol]
- inhibition of cancer cells grown in vivo as tumor xenografts [1]: inhibits
